# Test results as given in US8822519B2, “Compound with agitation effect on peroxisome proliferator-activated receptor process for its preparation and use thereof” (Zhejiang Hisun Pharmaceutical Co., Ltd., priority 2008, dated 2014).
# pEC50: −log10 of the molar value.
# Columns and labels:
# [1] = Tissue distribution; format: in vivo, SD rats; conditions: distribution in organs, SD rats, 10 mg/kg
# Protocol: 18 of SD rats were fasting for 16 h with free access for water, assigned them into 3 groups with 6 animals/group with a female-to-male ratio of 1:1; they were dosed with HS060098 (10 mg/kg), then the animals were sacrificed at 1, 10, and 24 h after dosing, and the heart, liver, spleen, lung, kidney in each animal were removed rapidly. The tainted blood on the surface of the organ was washed off immediately with physiological saline. The tissue from the organ was dissected apart, washed thoroughly, blotted off, weighed, supplemented with physiological saline at 400 mg/ml, homogenized in an ice bath for 1 min, and centrifuged at 3750 rpm for 20 min. 400 μl of the supernatant was pipetted precisely, followed by addition of 40 μl of an inner standard (HS060001 used as the inner standard with a molar concentration of 5 mmol/L), diluted with 3 ml of purified water, vortexed to homogeneity, and loaded onto a column (SPE C18 column was firstly washed with 3 ml of purified water, and sequentially with 3 ml of 10% methanol for activation). The column was rinsed with 3 ml of purified water at 1 ml/min, and then eluted with 3 ml of a elutant (methanol: purified water=9:1). The eluate was collected and blow-dried under a nitrogen flow at 45° C. The residue was dissolved in 400 μl of acetonitrile and then a HPLC insert was placed and followed by injection of the sample.
# [2] = tested on: Macaca rhesus model of hyperlipidemia; test: Macaca rhesus model of hyperlipidemia, hematological indicators and ELISA; format: in vivo; conditions: three months of administration
# From the text: Afterwards, efficacy of the medicament of the A-3 was confirmed in the Macaca rhesus model of hyperlipidemia. After three months of administration, blood samples were taken from the femoral vein for the determination of hematological indicators, and the determination of the insulin, apolipoprotein A-1 (apoA-1) and apolipoprotein B-100 (apoB-100) by ELISA.
# [3] = tested on: high fat fodder obese C57BL/6J mice; test: High fat fodder obese mice: body weight and food intake; format: in vivo; conditions: for effect on the food intake of the animals / body weight of the animals: in words; for body weight of the animals: Table 4 and FIG. 1
# From the text: (§1) 3 week-old male C57BL/6J mice were chosen as experiment animals, 15 of which were randomly selected to feed with a standard fodder, and the remains were allowed to feed with a high fat fodder, with each of the mice being marked by ear-cutting. The body weights and fodder intake of the mice were weighed every week. […] After the administration of the inventive compounds for four weeks, the effects of the medicaments on the levels of blood lipid and blood glucose, body weight, and fodder intake in the animals were observed, while a glucose tolerance test was performed to investigate the effects of the medicaments on the glucose tolerance in the animals.
# [4] = tested on: high fat fodder obese C57BL/6J mice; test: Oral glucose tolerance test in obese mice; format: in vivo; conditions: FIG. 2, in words
# Protocol: The abscissa represents blood-sampling time points, 0 min, 30 min, 60 min, 120 min after orally given with glucose; the ordinate represents the corresponding blood glucose level (mmol/L).
# as §1
# [5] = Pharmacokinetics: plasma concentration-time curve; format: in vivo; conditions: SD rats, gastric lavage, 50, 10 and 2 mg/kg
# Protocol: The dosing volume was 10 ml/kg, and blood samples of 0.4-0.5 ml were taken from the vena orbitalis posterior of the waken animals at different time points post-gastric lavage and centrifuged at 5000 rpm for 10 min. 200 μL of plasma sample was precisely measured, then supplemented with 200 μL acetonitrile, vortexed to evenness, left stand for 5 min, and centrifuged (14000 rpm, 5 min). The supernatant was collected and then centrifuged again (14000 rpm, 5 min). The resulting supernatant was gathered and subjected to HPLC injection. Time points for blood sampling were respectively: 0, 0.5, 1, 2, 4, 6, 8, 10, 12, 24, 36, 48 and 72 h, and the peak area for each time point was the average of those obtained from 6 rats at the same time point. Plasma concentrations were calculated and the medicament concentration-time curve was plotted.
# [6] = tested on: high fat fodder obese C57BL/6J mice; test: High fat fodder obese mice: levels of blood lipid and blood glucose; format: in vivo; parameters: HDL / GLU / TC / TG: unit not given here; conditions: for GLU / HDL / TC / TG: mean ± s, n 5; for levels of TG and GLU in the sera from the model animals: in words
# From the text: as §1, with “[…],” for “After the administration of the inventive compounds for four weeks,”
# [7] = biological target: T1, PPARδ (Homo sapiens, UniProt Q03181); test: In vitro screening of nuclear receptor agonist: luciferase reporter gene assay in HepG2 cells; format: cell-based; conditions: RXR/PPARδ luciferase reporter gene, 24 h treatment
# T1 construct: expressed in transfected cells; host or cells: HepG2 (human hepatocarcinoma, ATCC)
# T1 sequence (Q03181 1-441): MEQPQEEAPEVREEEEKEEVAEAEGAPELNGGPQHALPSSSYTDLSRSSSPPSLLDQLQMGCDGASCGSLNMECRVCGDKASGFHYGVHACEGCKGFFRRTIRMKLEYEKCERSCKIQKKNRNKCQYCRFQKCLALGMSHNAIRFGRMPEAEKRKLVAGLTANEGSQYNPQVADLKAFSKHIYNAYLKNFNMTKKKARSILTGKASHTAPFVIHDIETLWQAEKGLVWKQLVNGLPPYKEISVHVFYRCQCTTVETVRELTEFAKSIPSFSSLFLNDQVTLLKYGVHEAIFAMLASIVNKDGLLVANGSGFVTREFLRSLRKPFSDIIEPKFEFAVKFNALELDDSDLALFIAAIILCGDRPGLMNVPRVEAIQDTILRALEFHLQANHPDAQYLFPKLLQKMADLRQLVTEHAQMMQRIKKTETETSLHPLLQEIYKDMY
# T1 sequence (P19793 1-462 partner): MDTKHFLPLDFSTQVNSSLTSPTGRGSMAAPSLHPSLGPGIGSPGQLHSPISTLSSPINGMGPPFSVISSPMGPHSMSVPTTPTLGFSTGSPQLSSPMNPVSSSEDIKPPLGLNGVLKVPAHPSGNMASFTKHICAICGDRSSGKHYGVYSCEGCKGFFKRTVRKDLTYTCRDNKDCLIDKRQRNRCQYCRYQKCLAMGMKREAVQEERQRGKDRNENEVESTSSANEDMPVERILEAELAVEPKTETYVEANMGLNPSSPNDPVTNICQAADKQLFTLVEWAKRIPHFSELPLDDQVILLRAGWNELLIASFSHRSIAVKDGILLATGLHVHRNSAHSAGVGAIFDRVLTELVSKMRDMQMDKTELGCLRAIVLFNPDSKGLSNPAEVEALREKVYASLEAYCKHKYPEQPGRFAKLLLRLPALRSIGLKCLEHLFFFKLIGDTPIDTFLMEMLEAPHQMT
# From the text: Using a reporter gene protocol, the screening model for screening a nuclear receptor agonist in a living cell is designed on a basis of the principal that an activated nuclear receptor can activate transcription of its downstream gene. A reporter gene plasmid is constructed, in which the DNA binding sequence for the nuclear receptor (NRE) is inserted upstream of the luciferase gene, so that the expression of the luciferase gene is placed under the control of the nuclear receptor. Then, the reporter gene plasmid and the nuclear receptor are simultaneously transferred into a cell, and the nuclear receptor is activated when the nuclear receptor agonist is present in the cell culture medium. Then the activated receptor is able to induce the expression of the luciferase gene, while the amount of the luciferase can be determined through its luminous substrate. In this way, the intensity of activation by the compound on the nuclear receptor could be known by observing the luminescence intensity.
# The specific operation is described as follows:
# The experiment reagents: the compounds to be tested (20 mM, in DMSO, stored at −80° C.).
# The hepatocarcinoma cell HepG2 (from ATCC, American Type Culture Collection) was cultured in DMEM medium supplemented with 10% heat-inactivated fetal bovine serum (FBS, Invitogen, Grand Island, N.Y., USA) in a T-75 culture bottle (Greiner, Germany) in a incubator at 37° C., the relative humidity of 100%, and 5% CO2. When the cell culture in the culture bottle reached 80-90% confluency, it was digested with 0.25% Trypsin (with EDTA) for 3 min and inoculated into a 96-well cell culture plate at an inoculating density of 2000 cells/100 μl/well.
# In the next day, when the cells in the 96-well culture plate grew up to 50-80% confluency, cell transfection was performed. The cell co-transfection system comprised the FuGene6 transfection agent (Roche Molecular Biochemicals, Indianapolis, Ind., U.S.A.) and 60 ng DNA (long of hRXR, 10 ng of pCMV βGal, 10 ng of the nuclear receptor expression plasmid RXR/PPARδ, 30 ng of GFP fluorescence reporter gene plasmid, respectively).
# The cell culture medium was discarded immediately at 24 hours post-transfection and replaced by 200 μl of a fresh DMEM medium containing the medicament to be tested (with 10% FBS treated by activated carbon).
# 24 h after treatment with the medicament, the cells were lysed with a lysis solution (Cell Culture Lysis buffer, Promega) and centrifuged, and the supernatant was collected. The supernatant was treated with a fluorescence detection kit (Promega) and counted by a fluorescence meter (Ascent Fluoroskan FL reader, Thermo Labsystems, Finland), and the relative intensity of the luciferase was determined. For assaying the β-galactosidase activity used in the experiment as the inner reference (the inner reference calibrating for the transfection efficiency), 50 μl of the supernatant was transferred into a fresh microplate and treated with the Promega kit and read at a wavelength of 405 nm from a microplate reader (Bio-tech Instruments Inc., Winooski, Vt., USA) (Sauerberg, P.; Olsen, G. S.; Jeppesen, L.; Mogensen, J. P. et al., J. Med. Chem., 2007, 50, 1495-1503).
# The median effective concentration (EC50) of a sample is a concentration at which the sample has 50% pharmacological effect. This value is one of the important parameters for evaluating pharmacological effects of a compound. In the present screening process, the EC50 of a sample was calculated according to the activation of the receptor by the sample at six different concentrations.
# [8] = vs hyperlipidemia model control group
# [9] = 2 weeks administration, 3.3 mg/kg
# [10] = 2 weeks administration, 10 mg/kg
# [11] = 4 weeks administration, 3.3 mg/kg
# [12] = 4 weeks administration, 10 mg/kg
molecule,measurement,setting,value
"2-(3-methyl-4-(1-(3-(4-methyl-5-oxo-1-(4-trifluoromethyl-phenyl)-4,5-dihydrogen-1H-1,2,4-triazolyl))-benzyloxy)-phenylthio)-acetic acid [Compound A-3]",Heart,[1],26%
same,Kidney,[1],9%
same,Liver,[1],36%
same,Lung,[1],16%
same,Spleen,[1],13%
same,concentration of apoA-1,"[2]; ELISA, in words",significantly increased
same,concentration of apoB-100,"[2]; ELISA, in words",significantly decreased
same,insulin concentration,"[2]; ELISA, in words",significantly decreased
same,high density lipoprotein (HDLc) increased,[2]; [8],67%
same,low density lipoprotein (LDLc) decreased,[2]; [8],38%
same,serum total cholesterol (TC) decreased,[2]; [8],45%
same,Food intake,"[3]; column 1, 3.3 mg/kg",5.22 g
same,Food intake,"[3]; column 1, 10 mg/kg",5.46 g
same,Food intake,"[3]; column 2, 3.3 mg/kg",5.04 g
same,Food intake,"[3]; column 2, 10 mg/kg",4.84 g
same,Food intake,"[3]; column 3, 3.3 mg/kg",6.06 g
same,Food intake,"[3]; column 3, 10 mg/kg",4.94 g
same,Food intake,"[3]; column 4, 3.3 mg/kg",5.1 g
same,Food intake,"[3]; column 4, 10 mg/kg",5.28 g
same,Food intake,"[3]; column 5, 3.3 mg/kg",6.275 g
same,Food intake,"[3]; column 5, 10 mg/kg",6.9 g
same,effect on the food intake of the animals,[3],no significant effect
same,body weight of the animals,[3],significantly decrease
same,glucose tolerance in the obese animals,[4],significantly improve the glucose tolerance
same,bioavailability,[5],86%
same,GLU,[6]; [9],9.52 ± 1.71
same,HDL,[6]; [9],3.31 ± 0.21
same,TC,[6]; [9],3.25 ± 2.76
same,TG,[6]; [9],0.19 ± 0.12
same,GLU,[6]; [10],6.54 ± 1.04
same,HDL,[6]; [10],2.94 ± 1.42
same,TC,[6]; [10],5.12 ± 0.65
same,TG,[6]; [10],0.18 ± 0.02
same,GLU,[6]; [11],9.54 ± 0.71
same,HDL,[6]; [11],3.1 ± 0.59
same,TC,[6]; [11],5.11 ± 0.31
same,TG,[6]; [11],0.07 ± 0.01
same,GLU,[6]; [12],6.6 ± 1.15
same,HDL,[6]; [12],2.89 ± 0.28
same,TC,[6]; [12],4.75 ± 0.57
same,TG,[6]; [12],0.11 ± 0.07
same,levels of TG and GLU in the sera from the model animals,[6],significantly decrease
"Cc1cc(SCC(=O)O)c(C)cc1OC(c1ccccc1)c1nn(-c2ccc(C(F)(F)F)cc2)c(=O)n1C (stereo not drawn) [Compound A-11, 2-(2,5-dimethyl-4-(1-(3-(4-methyl-5-oxo-1-(4-trifluoromethyl-phenyl)-4,5-dihydrogen-1H-1,2,4-triazolyl))-benzyloxy)-phenylthio)-acetic acid]",Food intake,"[3]; column 1, 3.3 mg/kg",6.0 g
same,Food intake,"[3]; column 1, 10 mg/kg",7.2 g
same,Food intake,"[3]; column 2, 3.3 mg/kg",5.0 g
same,Food intake,"[3]; column 2, 10 mg/kg",5.2 g
same,Food intake,"[3]; column 3, 3.3 mg/kg",5.8 g
same,Food intake,"[3]; column 3, 10 mg/kg",6.0 g
same,Food intake,"[3]; column 4, 3.3 mg/kg",6.2 g
same,Food intake,"[3]; column 4, 10 mg/kg",6.4 g
same,Food intake,"[3]; column 5, 3.3 mg/kg",6.9 g
same,Food intake,"[3]; column 5, 10 mg/kg",6.9 g
same,effect on the food intake of the animals,[3],no significant effect
same,body weight of the animals,[3],significantly decrease
same,glucose tolerance in the obese animals,[4],significantly improve the glucose tolerance
same,pEC50,[7],> 9.00
same,GLU,[6]; [9],8.85 ± 2.13
same,HDL,[6]; [9],3.25 ± 1.29
same,TG,[6]; [9],0.21 ± 0.08
same,GLU,[6]; [10],6.51 ± 1.61
same,HDL,[6]; [10],2.39 ± 1.36
same,TC,[6]; [10],4.51 ± 0.37
same,TG,[6]; [10],0.16 ± 0.06
same,GLU,[6]; [11],7.61 ± 0.5
same,HDL,[6]; [11],3.83 ± 0.1
same,TC,[6]; [11],5.84 ± 0.21
same,TG,[6]; [11],0.12 ± 0.05
same,GLU,[6]; [12],6.93 ± 0.3
same,HDL,[6]; [12],2.84 ± 1.09
same,TC,[6]; [12],5.28 ± 0.48
same,TG,[6]; [12],0.15 ± 0.05
same,levels of TG and GLU in the sera from the model animals,[6],significantly decrease
